# Source: PMC5830761 (Royal Society Open Science, 2018)
# Key:
# human A1 receptors = biological target: T1, human A1 receptors (Homo sapiens, UniProt P30542); test: Radioligand binding to human A1 AR ([3H]CCPA), CHO cell membranes; settings: mean ± SEM; for Ki: CHO cells expressing human A1AR, radioligand [3H]CCPA, read-out: Ki hA1AR
# T1 sequence (P30542 1-326): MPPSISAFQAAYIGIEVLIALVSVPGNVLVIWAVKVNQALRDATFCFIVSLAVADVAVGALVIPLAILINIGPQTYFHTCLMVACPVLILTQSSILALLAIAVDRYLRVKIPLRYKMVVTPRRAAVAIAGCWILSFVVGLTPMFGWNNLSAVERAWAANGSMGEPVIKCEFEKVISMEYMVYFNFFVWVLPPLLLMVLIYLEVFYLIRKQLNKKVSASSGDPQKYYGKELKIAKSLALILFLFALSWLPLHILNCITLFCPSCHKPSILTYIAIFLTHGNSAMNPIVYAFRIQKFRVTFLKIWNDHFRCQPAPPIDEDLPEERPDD
# Experimental: (§1) CHO (Chinese hamster ovary) cells expressing the recombinant human ARs^2 were cultured in DMEM supplemented with 10% fetal bovine serum, 100 units/mL penicillin, 100 µg/mL streptomycin, 2 µmol/mL glutamine, and 800 µg/mL geneticin. Cells were harvested by trypsinization. After homogenization and suspension, cells were centrifuged at 500 g for 10 min, and the pellet was resuspended in 50 mM Tris-HCl buffer (pH 8.0) containing 10 mM MgCl2, 1 mM EDTA, and 0.1 mg/mL CHAPS. The suspension was homogenized with an electric homogenizer for 10 s and was then recentrifuged at 20000 g for 20 min at 4 °C. […] The protein concentration was measured using the Bradford assay.^3
# (§2) Human A1 and A2A receptors: For binding to human A1 receptors, [^3H]CCPA (1 nM) was incubated with membranes (40 µg/tube) from CHO cells stably expressing human A1 receptors at 25 °C for 60 min in 50 mM Tris-HCl buffer (pH 7.4; MgCl2, 10 mM) in a total assay volume of 200 µL. Nonspecific binding was determined using 10 µM of CPA. For human A2A receptor binding, membranes (20 µg/tube) from HEK-293 cells stably expressing human A2A receptors were incubated with 15 nM [^3H]CGS21680 at 25 °C for 60 min in 200 µL of 50 mM Tris-HCl, pH 7.4, containing 10 mM MgCl2. NECA (10 µM) was used to define nonspecific binding. Reaction was terminated by filtration with GF/B filters.
# human A2A receptors = biological target: T2, human A2A receptors (Homo sapiens, UniProt P29274); test: Radioligand binding to human A2A AR ([3H]CGS21680); settings: cells expressing human A2AAR; radioligand [3H]CGS21680; mean ± SEM; read-out: Ki hA2AAR
# T2 construct: expressed in transfected cells
# T2 sequence (P29274 whole entry): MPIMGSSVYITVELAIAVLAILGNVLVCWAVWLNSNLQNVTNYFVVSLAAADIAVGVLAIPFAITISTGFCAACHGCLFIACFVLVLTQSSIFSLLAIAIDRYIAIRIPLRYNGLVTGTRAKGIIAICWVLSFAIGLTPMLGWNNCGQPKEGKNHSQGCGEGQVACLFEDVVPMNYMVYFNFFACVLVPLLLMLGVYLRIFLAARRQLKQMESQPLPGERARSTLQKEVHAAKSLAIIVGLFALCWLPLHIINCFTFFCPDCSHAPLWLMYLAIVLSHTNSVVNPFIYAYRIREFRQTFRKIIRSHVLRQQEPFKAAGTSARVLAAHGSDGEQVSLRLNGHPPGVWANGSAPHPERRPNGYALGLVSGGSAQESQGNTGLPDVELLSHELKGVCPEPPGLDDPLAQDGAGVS
# Experimental: as §1, §2
# human A3 receptor = biological target: T3, human A3 receptor (Homo sapiens, UniProt P0DMS8); test: Competitive radioligand binding to human A3 AR ([125I]I-AB-MECA), CHO cell membranes; settings: CHO cells expressing human A3AR; radioligand [125I]I-AB-MECA; mean ± SEM; read-out: Ki hA3AR
# T3 construct: expressed in transfected cells; host or cells: CHO cells, membranes
# T3 sequence (P0DMS8 1-318): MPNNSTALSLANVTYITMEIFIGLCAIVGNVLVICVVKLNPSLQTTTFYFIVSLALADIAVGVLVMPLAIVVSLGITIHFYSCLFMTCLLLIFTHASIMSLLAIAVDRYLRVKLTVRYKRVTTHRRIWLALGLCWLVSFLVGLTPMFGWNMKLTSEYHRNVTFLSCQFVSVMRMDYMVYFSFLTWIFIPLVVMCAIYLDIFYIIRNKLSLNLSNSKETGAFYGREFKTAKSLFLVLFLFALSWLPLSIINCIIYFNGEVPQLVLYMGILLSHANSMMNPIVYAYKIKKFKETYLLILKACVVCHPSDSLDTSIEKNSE
# Experimental: as §1, with “CHAPS.” for “CHAPS. The suspension was homogenized with an electric homogenizer for 10 s and was then recentrifuged at 20000 g for 20 min at 4 °C.”
# Human A3 receptor: For competitive binding assay, each tube contained 100 µL of membrane suspension (20 µg protein), 50 µL of [^125I]I-AB-MECA (0.5 nM), and 50 µL of increasing concentrations of the nucleoside derivative in Tris-HCl buffer (50 mM, pH 7.4) containing 10 mM MgCl2 and 1 mM EDTA. Nonspecific binding was determined using 10 µM of Cl-IB-MECA in the buffer. The mixtures were incubated at 25 °C for 60 min. Binding reactions were terminated by filtration through Whatman GF/B filters under reduced pressure using a MT-24 cell harvester (Brandell, Gaithersburgh, MD). Filters were washed three times with 9 mL of ice-cold buffer. Radioactivity was determined in a Beckman 5500B γ-counter.
"inhibition at 10 µM (human A1 receptors; at 10 µM, weak binding, corresponding to IC50 ≥ 10 µM, [3H]CCPA, read-out: % inhibition at 10 µM hA1AR) [%]",Ki (human A2A receptors) [nM],Ki (human A3 receptor) [nM],Ki (human A1 receptors) [nM],Structure (SMILES)
47,2770 ± 500,679 ± 149,,Cn1cc(CCOc2nc(N)c3ncn([C@@H]4O[C@H](CO)[C@@H](O)[C@H]4O)c3n2)c2ccc(Br)cc21 [compound 9]
,380 ± 81,532 ± 144,217 ± 57,Nc1nc(OCCc2cn(Cc3ccccc3)c3cc(Br)ccc23)nc2c1ncn2[C@@H]1O[C@H](CO)[C@@H](O)[C@H]1O [compound 10]
,262 ± 192,177 ± 43,230 ± 26,"Cn1cc(CCCOc2nc(N)c3ncn([C@@H]4O[C@H](CO)[C@@H](O)[C@H]4O)c3n2)c2ccc(Br)cc21 [compound 13, 2-(6""-Bromo-1""-Methyl-3""-indolylpropoxy)adenosine]"
,371 ± 79,491 ± 143,152 ± 49,"Nc1nc(OCCCc2cn(Cc3ccccc3)c3cc(Br)ccc23)nc2c1ncn2[C@@H]1O[C@H](CO)[C@@H](O)[C@H]1O [compound 14, 2-(6""-Bromo-1""-Benzyl-3""-indolylpropoxy)adenosine]"
